Earlier results in patent publication US20110105488A1, “SUBSTITUTED PYRROLIDINE AND PIPERIDINE COMPOUNDS, DERIVATIVES THEREOF, AND METHODS FOR TREATING PAIN” (Chlorion Pharma, Inc., priority 2008, published 2011).

Legend:
patients = conditions: human, in vivo
[1] = tested on: patients with post-herpetic neuralgia
clinical trial subjects = conditions: review of multiple clinical studies

For `NC(=O)N1c2ccccc2C=Cc2ccccc21` [carbamazepine], the adverse effects evoked (patients) is given as “various sensory deficits” and the “patients with rash and leucopenia” value (patients) is given as ~10%.
In the case of `NCC1(CC(=O)O)CCCCC1` [gabapentin], the “mean endpoint pain score” value ([1]; 8-week trials, mean baseline 6.3) is listed as 4.2 and the decrease in pain ([1]; two placebo-controlled, parallel-group trials of 8-weeks duration) is listed as ~33%.
In the case of `CC(C)C[C@H](CN)CC(=O)O` [pregabalin], the adverse effects evoked (clinical trial subjects) is listed as “significant somnolence, vertigo, and headache”.
